Data published in patent publication US9029337B2, “Modulation of factor 7 expression” (Isis Pharmaceuticals, Inc., priority 2007, dated 2015).
Strand notation (5' to 3'): a small letter for the sugar, then the base; units joined by * are phosphorothioate-linked, units joined directly phosphodiester-linked; [ ] holds rarer units or linkages, { } end groups; capitals alone tell only the bases. e = 2'-O-(2-methoxyethyl) (MOE); [5mC] = 5-methylcytosine; d = 2'-deoxy (DNA)

Key:
Format in all cases: cell-based
[1] = system: human Factor 7 mRNA; assay: Antisense inhibition of human Factor 7 mRNA in HepB3 cells, 50 nM antisense oligonucleotide, lipofectin; conditions: for % Inhibition: Table 13 (microwalk), 50 nM, lipofectin, approximately 24 hours
In short: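 Cells plated at 4,000 per well were transfected and harvested after approximately 24 hours of treatment. Transcript levels, measured with primer probe set RTS 2927, were normalised to total RNA by RIBOGREEN®. Values are percent inhibition relative to untreated control cells.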

[2] = system: human Factor 7 mRNA; assay: Dose-dependent antisense inhibition of human Factor 7 in HepB3 cells, lipofectin; conditions: HepB3 cells, approx. 16 hours (Table 14)
Description: Cells were plated at a density of 4,000 cells per well and treated with lipofectin reagent with 3.125 nM, 6.25 nM, 12.5 nM, 25 nM, 50 nM, and 100 nM concentrations of antisense oligonucleotide, as indicated in Table 3. After a treatment period of approximately 16 hours, RNA was isolated from the cells and Factor 7 mRNA levels were measured by real-time RT-PCR, as described herein. Human Factor 7 primer probe set RTS 2927 (forward sequence: […], incorporated herein as SEQ ID NO: 164; reverse sequence: […], incorporated herein as SEQ ID NO: 165; probe sequence: TGGGTGGTCTCCGCGGCCX, incorporated herein as SEQ ID NO: 166) was used to measure mRNA levels. Factor 7 mRNA levels were adjusted according to total RNA content as measured by RIBOGREEN®. Results are presented as percent inhibition of Factor 7, relative to untreated control cells.
Cells were plated at a density of 4,000 cells per well and transfected using lipofectin reagent with 6.25 nM, 12.5 nM, 25.0 nM, 50.0 nM, and 100.0 nM concentrations of antisense oligonucleotide, as indicated in Table 7. After a treatment period of approximately 16 hours, RNA was isolated from the cells and Factor 7 mRNA levels were measured by real-time RT-PCR, as described herein. Human Factor 7 primer probe set RTS 2927 was used to measure mRNA levels. Factor 7 mRNA levels were adjusted according to total RNA content as measured by RIBOGREEN®. Results are presented as percent inhibition of Factor 7, relative to untreated control cells.
(§1) Cells were plated at a density of 4,000 cells per well and transfected using lipofectin reagent with 3.125 nM, 6.25 nM, 12.5 nM, 25 nM, 50 nM, and 100 nM concentrations of antisense oligonucleotide, as specified in Table 14. After a treatment period of approximately 16 hours, RNA was isolated from the cells and Factor 7 mRNA levels were measured by quantitative real-time PCR. Human Factor 7 primer probe set RTS 2927 was used to measure mRNA levels. Factor 7 mRNA levels were adjusted according to total RNA content, as measured by RIBOGREEN®. Results are presented as percent inhibition of Factor 7, relative to untreated control cells.

[3] = system: human Factor 7 mRNA; assay: Dose-dependent antisense inhibition of human Factor 7 in HepB3 cells, electroporation
Description: as §1, with “The gapmers were also transfected via electroporation and their dose-dependent inhibition of human Factor 7 mRNA was measured. Cells” for “Cells”, “20,000” for “4,000”, “via electroporation” for “using lipofectin reagent”, “μM,” for “nM,”, “μM” for “nM”, “15.” for “14.”
Cells were plated at a density of 20,000 cells per well and transfected via electroporation with 3.125 μM, 6.25 μM, 12.5 μM, 25 μM, 50 μM, and 100 μM concentrations of antisense oligonucleotide, as specified in […]. After a treatment period of approximately 16 hours, RNA was isolated from the cells and human Factor 7 mRNA levels were measured by quantitative real-time PCR. Human Factor 7 primer probe set RTS 2927 was used to measure mRNA levels. Factor 7 mRNA levels were adjusted according to total RNA content, as measured by RIBOGREEN®. Results are presented as percent inhibition of Factor 7, relative to untreated control cells.

[4] = 3.125 μM, approx. 16 hours (Table 15, Example 7)
[5] = 3.125 μM, approx. 16 hours (Table 16, Example 8 confirmation)
[6] = 6.25 μM, approx. 16 hours (Table 15, Example 7)
[7] = 6.25 μM, approx. 16 hours (Table 16, Example 8 confirmation)
[8] = 12.5 μM, approx. 16 hours (Table 15, Example 7)
[9] = 12.5 μM, approx. 16 hours (Table 16, Example 8 confirmation)
[10] = 25 μM, approx. 16 hours (Table 15, Example 7)
[11] = 25 μM, approx. 16 hours (Table 16, Example 8 confirmation)
[12] = 50 μM, approx. 16 hours (Table 15, Example 7)
[13] = 50 μM, approx. 16 hours (Table 16, Example 8 confirmation)
[14] = 100 μM, approx. 16 hours (Table 15, Example 7)
[15] = 100 μM, approx. 16 hours (Table 16, Example 8 confirmation)

Substance	% Inhibition [1] [%]	percent inhibition of Factor 7 mRNA, relative to untreated control cells ([2]; 3.125 nM) [%]	percent inhibition of Factor 7 mRNA, relative to untreated control cells ([2]; 12.5 nM) [%]	percent inhibition of Factor 7 mRNA, relative to untreated control cells ([2]; 25 nM) [%]	percent inhibition of Factor 7 mRNA, relative to untreated control cells ([2]; 50 nM) [%]	percent inhibition of Factor 7 mRNA, relative to untreated control cells ([2]; 100 nM) [%]	percent inhibition of Factor 7 mRNA, relative to untreated control cells [2] [%]	percent inhibition of Factor 7 mRNA, relative to untreated control cells [3, 4] [%]	percent inhibition of Factor 7 mRNA, relative to untreated control cells [3, 5] [%]	percent inhibition of Factor 7 mRNA, relative to untreated control cells [3, 6] [%]	percent inhibition of Factor 7 mRNA, relative to untreated control cells [3, 7] [%]	percent inhibition of Factor 7 mRNA, relative to untreated control cells [3, 8] [%]	percent inhibition of Factor 7 mRNA, relative to untreated control cells [3, 9] [%]	percent inhibition of Factor 7 mRNA, relative to untreated control cells [3, 10] [%]	percent inhibition of Factor 7 mRNA, relative to untreated control cells [3, 11] [%]	percent inhibition of Factor 7 mRNA, relative to untreated control cells [3, 12] [%]	percent inhibition of Factor 7 mRNA, relative to untreated control cells [3, 13] [%]	percent inhibition of Factor 7 mRNA, relative to untreated control cells [3, 14] [%]	percent inhibition of Factor 7 mRNA, relative to untreated control cells [3, 15] [%]	further results
422086 (antisense eT*eG*e[5mC]*eA*eT*dG*dG*dT*dG*dA*dT*dG*d[5mC]*dT*dT*e[5mC]*eT*eG*eA*eA) [compound 422086]	81	8	46	65	83	90	26	20	25	34	48	44	74	63	82	75	86	84	90	
422087 (antisense e[5mC]*eA*eT*eG*e[5mC]*dA*dT*dG*dG*dT*dG*dA*dT*dG*d[5mC]*eT*eT*e[5mC]*eT*eG) [compound 422087]	83	14	51	73	83	90	24	22	19	26	38	48	66	57	75	72	80	80	87	
422096 (antisense eA*eG*eA*e[5mC]*eA*dA*dT*dG*dG*dT*d[5mC]*dA*dG*dG*dG*e[5mC]*eT*eG*eG*eT) [compound 422096]		17	43	60	68	82	23	26		30		46		50		62		85		% Inhibition (human Factor 7 mRNA levels) ([1]; oligonucleotides targeted to nucleobases 11830 to 11869 of SEQ ID NO: 1 (Table 9)): 76%
422130 (antisense eG*e[5mC]*e[5mC]*eT*eG*dA*dG*dG*d[5mC]*d[5mC]*dA*dG*d[5mC]*dA*dG*eA*eT*e[5mC]*eA*e[5mC]) [compound 422130]		4	34	59	77	85	15	28	14	29	24	59	61	61	68	73	82	86	88	% Inhibition (human Factor 7 mRNA levels) ([1]; oligonucleotides targeted to nucleobases 14707 to 14732 of SEQ ID NO: 1 (Table 11)): 79%
422140 (antisense eG*eT*eT*e[5mC]*eT*dG*d[5mC]*dA*dG*dG*dA*dG*d[5mC]*dG*dG*e[5mC]*e[5mC]*eT*eA*eA) [compound 422140]		18	49	64	74	74	35	29		34		51		64		69		77		% Inhibition of human Factor 7 mRNA levels ([1]; gapmers targeted to nucleobases 4868 to 4899 of SEQ ID NO: 1, Table 8): 74%
